From PMC12206033, “Selective inhibition of TRPV3 channel by natural rosmarinic acid and its analogs for alleviation of skin lesions through downregulation of NF-κB pathway” (The Journal of Biological Chemistry, 2025) come the findings set out here.

Structures are written as SMILES.

As usually defined, the inhibition is the relative decrease from the control value, in per cent.

The experiment concerns the target T1, mTRPV2 (Mus musculus, UniProt Q9WTR1).
T1 construct: expressed in transfected cells; host or cells: HEK293T
T1 sequence (Q9WTR1 1-756): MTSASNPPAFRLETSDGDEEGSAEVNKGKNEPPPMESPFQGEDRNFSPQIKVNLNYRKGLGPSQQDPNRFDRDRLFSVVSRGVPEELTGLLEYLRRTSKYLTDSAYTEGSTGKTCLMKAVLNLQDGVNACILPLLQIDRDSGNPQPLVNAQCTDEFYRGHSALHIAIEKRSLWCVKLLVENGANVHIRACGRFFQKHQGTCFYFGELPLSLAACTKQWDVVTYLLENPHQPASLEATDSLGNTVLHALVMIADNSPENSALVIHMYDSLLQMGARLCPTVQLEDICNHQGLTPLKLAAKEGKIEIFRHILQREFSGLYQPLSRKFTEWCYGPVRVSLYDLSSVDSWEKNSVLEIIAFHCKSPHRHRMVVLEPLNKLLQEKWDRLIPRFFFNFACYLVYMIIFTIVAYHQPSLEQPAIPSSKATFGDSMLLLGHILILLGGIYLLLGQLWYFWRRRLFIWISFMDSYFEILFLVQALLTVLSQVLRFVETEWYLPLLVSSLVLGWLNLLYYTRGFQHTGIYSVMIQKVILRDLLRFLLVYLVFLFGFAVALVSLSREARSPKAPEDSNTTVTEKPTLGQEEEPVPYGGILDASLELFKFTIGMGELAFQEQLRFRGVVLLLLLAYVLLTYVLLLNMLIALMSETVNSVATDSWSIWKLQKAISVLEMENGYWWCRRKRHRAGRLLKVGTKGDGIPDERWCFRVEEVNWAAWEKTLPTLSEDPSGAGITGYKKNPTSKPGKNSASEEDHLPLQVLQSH
As to the kind of experiment: whole-cell patch-clamp of mTRPV2 currents activated by 2-APB. Type of experiment: cell-based. The note with it: ROSA 50 μM; agonist 2-APB 2 mM; read-out: inhibition of TRPV2 currents. The protocol: HEK293T cell line was obtained from the Cell Resource Center, Peking Union Medical College. HEK293T cells were maintained in Dulbecco’s modified Eagle’s medium (DMEM, Gibco) supplemented with 10% fetal bovine serum at 37 °C with 5% CO2. […] The next day, determine the plasmid transfection status by observing green fluorescence based on expression of enhanced GFP as an indicator. […] When conducting experiments on HEK293T cells transfected with G573S point mutant TRPV3 plasmid, we replaced culture medium with or without compounds after 4 h of transfection and then observed green fluorescence of HEK293T cell after 10 h. As for the relative fluorescence intensity, we convert the image to 8 bit grayscale using ImageJ (Https://imagej.net/software/fiji/downloads) and set an appropriate threshold value to reduce background noise and enhance the image contrast.
All patch-clamp recordings were conducted 16 to 24 h after transfection using an EPC10 amplifier powered by PatchMaster software (HEKA) (https://www.heka.com/downloads/downloads_main.html#down_patchmaster) at room temperature. […] Currents were recorded at a potential ramp from −100 mV to +100 mV for 1000 ms with 1000-ms intervals (for whole-cell recordings) or a persistent potential of −60 mV (inside-out patch recordings). […]
For orientation: In patch-clamp work, channel activity is measured electrically.

On to `O=C(/C=C/c1ccc(O)c(O)c1)O[C@H](Cc1ccc(O)c(O)c1)C(=O)O` [ROSA, rosmarinic acid], for which the inhibition at 50 µM amounted to 21 ± 6.1%.
